Assay results reported in patent US11708335B2, “Pyrimidine compounds useful as tyrosine kinase inhibitors” (STERNGREENE, INC., priority 2017, dated 2023).

How the values were obtained:
[1] = biological target: EGFR(C797S) (Homo sapiens, UniProt P00533, C797S); assay: RBC HotSpot kinase assay, EGFR mutants, 10 μM ATP; assay type: biochemical; conditions: FIG. 3
Procedure: (§1) Example 2: RBC HotSpot Kinase Assay Protocol
(§2) An RBC HotSpot Kinase Assay can be performed to determine kinase activity data. A sample RBC HotSpot KinaseAssay protocol is as follows:
(§3) Reagent: Base Reaction buffer; 20 mM Hepes (pH 7.5), 10 mM MgCl2, 1 mM EGTA, 0.02% Brij35, 0.02 mg/ml BSA, 0.1 mM Na3VO4, 2 mM DTT, 1% DMSO
(§4) Add required cofactors individually to each kinase reaction.
(§5) Compound handling: Dissolve testing compounds in 100% DMSO to specific concentration. Serial dilution can be conducted using Integra Viaflo Assist in DMSO.
(§6) Prepare substrate in freshly prepared Reaction Buffer.
(§7) Deliver any required cofactors to the substrate solution above.
(§8) Deliver kinase into the substrate solution and gently mix.
(§9) Deliver compounds in 100% DMSO into the kinase reaction mixture by Acoustic technology (Echo550; nanoliter range) and incubate for 20 min at room temp.
(§10) Deliver ^33P-ATP (Specific activity 10 μCi/μl) into the reaction mixture to initiate the reaction.
(§11) Incubate for 2 hours at room temperature.
(§12) Detect radioactivity by filter-binding method.
(§13) Kinase activity data can be expressed as the percent remaining kinase activity in test samples compared to vehicle (dimethyl sulfoxide) reactions. IC50 values and curve fits can be obtained using Prism (GraphPad Software).
(§14) Essays conducted as outlined in Examples 1 and 2.

[2] = biological target: EGFR(L858R/T790M/C797S) (Homo sapiens, UniProt P00533, C797S/L858R/T790M); assay: RBC HotSpot kinase assay, EGFR mutants, 10 μM ATP; assay type: biochemical; conditions: FIG. 3
Procedure: as §1, §2, §3, §4, §5, §6, §7, §8, §9, §10, §11, §12, §13, §14

[3] = biological target: EGFR(d746-750/T790M/C797 S) (Homo sapiens, UniProt P00533, C797S/DEL746-750/T790M); assay: RBC HotSpot kinase assay, EGFR mutants, 10 μM ATP; assay type: biochemical; conditions: FIG. 3
Procedure: as §1, §2, §3, §4, §5, §6, §7, §8, §9, §10, §11, §12, §13, §14

[4] = system: A431 cells; assay: In vitro proliferation (MTT) of A431 cells; assay type: cell-based; conditions: A431 cells express the wild type EGFR; FIG. 4
Procedure: (§15) Example 1: MTT Assay Protocol
(§16) An MTT assay can be performed to screen compounds for suitability as an EGFR inhibitor. A sample MTT assay protocol is as follows:
(§17) SKBR3, BT474, MDA-MB-231, MDA-MB-453, MDA-MB-468, Ml: 5000 cells/well, 5% FBS; NE91, NR6 and NR6 derived cell lines: 2500 cells/well, 5% FBS; H1975: 5000 cells/well, 1% FBS).
(§18) Add 50 μl medium with different concentrations of inhibitors. Incubate at 37° C., 5% CO2 for 72 hrs.
(§19) Replace the medium with 100 μl of fresh medium. Leave at 37° C., 5% CO2 for 4 hrs.
(§20) Add 25 μl of MIT (5 mg/ml stock solution, final concentration 1 mg/ml) to each well. Incubate the microtrays for 2 hours at 37° C.
(§21) Add 100 μl extraction buffer (50% DMF/20% SDS at pH 4.7) to each well.
(§22) Incubate overnight at 37° C. and OD measurements at 570 nm.
(§23) A MTT assay protocol is also described in Hansen et al., “Re-examination and further development of a precise and rapid dye method for measuring cell growth/cell kill,” J. Immunol. Methods 119:203-210 (1989).
as §14

[5] = system: NCI-H1975 cells; assay: In vitro proliferation (MTT) of NCI-H1975 cells; assay type: cell-based; conditions: FIG. 4; for activity against NCI-H1975 cells (proliferation): NCI-H1975 cells express the EGFR(T790M) mutant; for IC50: Homo sapiens, NCI-H1975 cells, EGFR(T790M) mutant, read-out: IC50, inhibition of NCI-H1975 cell proliferation
Procedure: as §15, §16, §17, §18, §19, §20, §21, §22, §23, §14

Row | activity against EGFR(C797S) [1] | activity on EGFR(L858R/T790M/C797S) [2] | activity on EGFR(d746-750/T790M/C797 S) [3] | IC50 [5] [nM] | SMILES | activity against A431 cells (proliferation) [4] | activity against NCI-H1975 cells (proliferation) [5] | activity against NCI-H1975 cells (proliferation) ([5]; listed as SG1-105)
1 | very strong activity | good activity | good activity | – | CCOc1cc2ncnc(Nc3ccc(F)c(Cl)c3)c2cc1NC(=O)/C=C/CN(C)CCCO [SGI-078] | weak activity | better activity | –
2 | very strong activity | good activity | good activity | 181 | CCOc1cc2ncnc(Nc3ccc(F)c(Cl)c3)c2cc1NC(=O)/C=C/CN(C)CCCOC [SGI-105] | weak activity | better activity | more active than SGI-078
